Activity calls are given as the source filed them.
How the values were obtained:
[1] = target: T1, Calpain-2 catalytic subunit (Sus scrofa, UniProt P43367); assay: pig calpain II inhibitor potency, dose response, biochemical, fluorogenic peptide substrate (AID 1420); assay type: functional
T1 sequence (P43367 whole entry): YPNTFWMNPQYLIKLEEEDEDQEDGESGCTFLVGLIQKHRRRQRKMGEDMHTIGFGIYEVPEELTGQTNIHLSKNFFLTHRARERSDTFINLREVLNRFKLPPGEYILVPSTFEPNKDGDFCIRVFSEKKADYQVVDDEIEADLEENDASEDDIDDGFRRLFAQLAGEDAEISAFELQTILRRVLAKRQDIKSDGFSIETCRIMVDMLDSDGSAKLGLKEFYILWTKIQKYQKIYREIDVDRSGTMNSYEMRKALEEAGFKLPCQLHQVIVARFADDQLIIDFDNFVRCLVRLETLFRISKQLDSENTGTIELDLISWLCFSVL

[2] = HEp-2 cell cytotoxicity, dose response, cytotoxicity control for RSV inhibitor project, HTS (AID 2410); assay type: functional; conditions: human respiratory syncytial virus
[3] = cells
[4] = target: T2, Ubiquitin-conjugating enzyme E2 N (Homo sapiens, UniProt P61088); assay type: functional;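 further: Dose-response confirmation in a TR-FRET assay detecting UBC13-driven polyubiquitin chain formation, inhibition measured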
T2 sequence (P61088 whole entry): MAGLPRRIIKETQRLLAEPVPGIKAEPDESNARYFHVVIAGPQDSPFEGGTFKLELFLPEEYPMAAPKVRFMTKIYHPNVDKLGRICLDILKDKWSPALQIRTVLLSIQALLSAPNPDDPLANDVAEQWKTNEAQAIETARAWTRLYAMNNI

[5] = target: FAD-linked sulfhydryl oxidase ALR (Homo sapiens, UniProt P55789); assay: inhibitors of human ALR sulfhydryl oxidase, dose response, biochemical, H2O2 detection, luminescence, cherry-pick (AID 493248)
[6] = inhibitors of clade B AD8 Env fusion, dose response, cell-based, cherry-pick (AID 652062); assay type: functional;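 further: luciferase signal from cell-cell fusion driven by HIV-1 clade B AD8 Env; potency is for inhibitors of fusion seen as a drop in luminescence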
[7] = inhibitors of HIV Env-driven cell fusion, dose response, cherry-pick (AID 652057); assay type: functional, cell-based
[8] = off-target signal loss in HeLa-CEM21 co-culture – HeLa F-luc CTL cells, cherry-picked, counter-screen for HIV-1 Env fusion inhibitor project, dose response (AID 652040); assay type: functional, cell-based;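 further: potency for signal decrease marking cytotoxic or nonspecific inhibition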
[9] = ZM109 Env clade C HIV-1 fusion inhibitors, dose response, HeLa effector, CEM target cells, luciferase, cherry-pick (AID 652058); assay type: functional, cell-based
[10] = inhibitors of intracellular T. cruzi replication, confirmation, NIH3T3 host cells, beta-gal luminescence (AID 2044); assay type: functional, cell-based;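 further: intracellular parasites grown in NIH/3T3 mouse fibroblasts as host cells; luminescent beta-galactosidase reporter signal from transgenic T. cruzi replicating inside host cells; inhibitors lower the luminescence signal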
[11] = cytotoxicity toward NIH3T3 fibroblasts, dose response, counter-screen, cell-based, ATP luminescence, mouse fibroblasts (AID 2010); assay type: functional;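 further: cells exposed to compound for about 90 hours before reading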
[12] = system: Vero; assay: cells; assay type: functional; conditions: Chlorocebus sabaeus
[13] = target: Cytochrome P450 2C9 (Homo sapiens, UniProt P11712)
[14] = cells; assay type: functional, cell-based
[15] = cells; assay type: functional, cell-based; remark: listed apart in the source
[16] = system: HEK293; assay: inhibitors of LMP1-driven NF-kB reporter, dose response, cell-based, HEK293, luciferase, cherry-pick (AID 588343); assay type: functional; conditions: Homo sapiens
[17] = system: INS1; assay: beta cell apoptosis inhibitors, cytokine rescue, dose response, luminescence, retest (AID 449756); assay type: functional, cell-based; conditions: Rattus norvegicus;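 further: cell death triggered by IL-1 beta plus TNF-alpha plus IFN-gamma mixture; protective hits raise ATP signal compared with cytokine alone wells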
[18] = target: T3, Microphthalmia-associated transcription factor (Homo sapiens, UniProt O75030); assay: TRPM1 promoter luciferase signal decrease, dose response, MITF inhibitor project, cell-based, SK-MEL-5, cherry-picked, set 3 (AID 493073); assay type: functional
T3 sequence (O75030 whole entry): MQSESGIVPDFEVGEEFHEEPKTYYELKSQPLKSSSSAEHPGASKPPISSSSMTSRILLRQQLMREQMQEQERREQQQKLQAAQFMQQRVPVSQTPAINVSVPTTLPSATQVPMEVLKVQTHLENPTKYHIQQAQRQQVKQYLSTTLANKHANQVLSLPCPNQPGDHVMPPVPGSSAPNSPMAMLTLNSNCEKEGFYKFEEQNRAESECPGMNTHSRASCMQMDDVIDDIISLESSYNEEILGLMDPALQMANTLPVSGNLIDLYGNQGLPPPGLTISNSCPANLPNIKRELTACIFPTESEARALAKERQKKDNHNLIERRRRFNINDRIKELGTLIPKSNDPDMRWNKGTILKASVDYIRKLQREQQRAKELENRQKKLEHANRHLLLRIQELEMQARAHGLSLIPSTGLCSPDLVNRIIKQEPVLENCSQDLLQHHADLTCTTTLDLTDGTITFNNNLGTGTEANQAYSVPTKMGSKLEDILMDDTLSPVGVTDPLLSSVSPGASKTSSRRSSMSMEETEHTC

[19] = system: Streptococcus sp. 'group A'; assay: growth inhibition of control SK(-) GAS strain, dose response, counter-screen for streptokinase expression inhibitor project, luminescence, kanamycin, BacTiterGlo, confirmation (AID 1900); assay type: functional, organism-based
[20] = system: Streptococcus; assay: Group A Streptococcus viability loss, dose response, counter-screen for streptokinase expression inhibitor project, luminescence, BacTiterGlo (AID 1915); assay type: functional, organism-based;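 further: potency for reduction of bacterial viability or growth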
[21] = target: T4, Cytochrome P450 1A2 (Homo sapiens, UniProt P05177);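 further: PubChem cytochrome P450 panel assay, CYP1A2 panel member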
T4 sequence (P05177 whole entry): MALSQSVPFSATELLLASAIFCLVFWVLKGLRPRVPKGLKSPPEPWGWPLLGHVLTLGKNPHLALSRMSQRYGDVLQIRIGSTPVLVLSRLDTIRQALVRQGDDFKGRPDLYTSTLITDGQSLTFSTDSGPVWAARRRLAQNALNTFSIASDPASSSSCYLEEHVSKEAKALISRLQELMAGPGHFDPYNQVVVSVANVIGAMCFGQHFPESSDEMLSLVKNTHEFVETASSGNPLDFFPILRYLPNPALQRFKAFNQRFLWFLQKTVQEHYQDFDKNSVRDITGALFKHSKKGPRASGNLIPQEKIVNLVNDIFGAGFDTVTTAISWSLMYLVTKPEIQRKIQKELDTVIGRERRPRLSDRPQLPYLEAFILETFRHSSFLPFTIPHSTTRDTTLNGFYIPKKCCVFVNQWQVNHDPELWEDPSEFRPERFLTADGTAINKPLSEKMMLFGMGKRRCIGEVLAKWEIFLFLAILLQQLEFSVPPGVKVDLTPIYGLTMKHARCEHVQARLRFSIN

[22] = target: Cytochrome P450 2C19 (Homo sapiens, UniProt P33261); assay: Cytochrome panel assay with activity outcomes. Panel member name: p450-cyp2c19 Compounds with AC50 equal or less than 10 uM are considered active; assay type: functional; conditions: read-out: AC50
[23] = control 3'UTR Renilla luciferase suppression, dose response, counter-screen for Shn3 inhibitor project, cell-based, Clone20-Shn3RL, cherry-picked (AID 624133); assay type: functional
[24] = HepG2 cell cytotoxicity, dose response, cytotoxicity control for Shn3 inhibitor project, CellTiter-Glo, cherry-picked (AID 624134); assay type: functional, cell-based
[25] = Shn3 3'UTR reporter inhibitors, dose response, cell-based, Clone20 osteoblasts, firefly luciferase, cherry-picked (AID 624132); assay type: functional;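 further: firefly luciferase luminescence from reporter carrying the Shn3 3'UTR in osteoblasts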
[26] = inhibitors of firefly luciferase expression or activity, dose response, H4 neuroglioma cells, luminescence (AID 1990); assay type: functional, cell-based
[27] = Luminescence Cell-Based Dose Response HTS to Identify Inhibitors of 5'UTR Stem-Loop Driven Prion Protein mRNA Translation in H4 Neuroglioblastoma Cells. [Related pubchem assays: 1827 (Project Summary), 1813 (Primary HTS)]; assay type: functional
[28] = inhibitors of SNCA 5'UTR-driven reporter translation, confirmation, H4 neuroglioma cells, luminescence (AID 1988); assay type: functional, cell-based

Chain of Cytochrome P450 2C9 (P11712 whole entry): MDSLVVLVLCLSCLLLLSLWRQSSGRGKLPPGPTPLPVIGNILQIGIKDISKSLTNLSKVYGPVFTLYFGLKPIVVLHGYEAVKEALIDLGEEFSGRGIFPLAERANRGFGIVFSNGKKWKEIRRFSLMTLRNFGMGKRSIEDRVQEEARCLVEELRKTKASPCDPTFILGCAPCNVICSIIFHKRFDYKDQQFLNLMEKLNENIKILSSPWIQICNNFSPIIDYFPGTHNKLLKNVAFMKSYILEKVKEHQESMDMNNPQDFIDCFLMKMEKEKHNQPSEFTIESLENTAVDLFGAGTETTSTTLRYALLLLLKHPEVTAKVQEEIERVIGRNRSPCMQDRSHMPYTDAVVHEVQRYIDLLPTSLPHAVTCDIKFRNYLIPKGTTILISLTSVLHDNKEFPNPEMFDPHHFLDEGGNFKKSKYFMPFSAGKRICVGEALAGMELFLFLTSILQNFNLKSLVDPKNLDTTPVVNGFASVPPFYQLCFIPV
Chain of FAD-linked sulfhydryl oxidase ALR (P55789 whole entry, the tested form may be a part): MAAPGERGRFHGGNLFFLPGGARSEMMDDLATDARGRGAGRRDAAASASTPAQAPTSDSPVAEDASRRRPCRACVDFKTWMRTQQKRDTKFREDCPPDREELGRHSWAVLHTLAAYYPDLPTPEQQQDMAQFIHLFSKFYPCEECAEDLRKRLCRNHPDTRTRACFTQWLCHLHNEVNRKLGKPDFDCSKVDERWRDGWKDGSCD
Chain of Cytochrome P450 2C19 (P33261 whole entry): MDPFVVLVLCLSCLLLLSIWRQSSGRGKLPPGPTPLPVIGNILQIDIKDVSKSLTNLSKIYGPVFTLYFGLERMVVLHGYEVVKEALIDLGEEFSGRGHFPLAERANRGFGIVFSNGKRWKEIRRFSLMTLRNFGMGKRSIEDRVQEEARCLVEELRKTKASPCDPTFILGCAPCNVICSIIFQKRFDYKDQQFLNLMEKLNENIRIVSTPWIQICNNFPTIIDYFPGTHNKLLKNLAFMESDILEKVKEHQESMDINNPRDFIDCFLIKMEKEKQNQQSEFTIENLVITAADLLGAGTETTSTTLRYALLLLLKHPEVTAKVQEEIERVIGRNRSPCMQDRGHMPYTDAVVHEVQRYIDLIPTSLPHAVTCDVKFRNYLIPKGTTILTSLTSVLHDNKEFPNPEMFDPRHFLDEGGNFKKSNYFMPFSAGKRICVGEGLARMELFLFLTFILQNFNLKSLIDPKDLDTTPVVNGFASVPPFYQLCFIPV

CC(C)Sc1nc2c3ccccc3nc-2c(O)n1C
IC50 [1]: 0.899 µM (not active)

Cc1cc(N2CCN(c3ccccc3)CC2)n2cc(-c3ccccc3)nc2n1
CC50 [2]: 45.6 µM (active)
IC50 [3]: 40 µM (active)

CCOC(=O)N1CCC(NC(=O)c2ccc3c(c2)ncn3C2CCCC2)CC1
IC50 [1]: 23.1 µM (not active)

CCOC(=O)C1CN(S(=O)(=O)c2ccc(C)cc2)C1
IC50 [1]: 4.65 µM (not active)

O=S(=O)(c1ccccc1F)N1CCCC(c2nc(O)c3nnn(Cc4ccccc4Cl)c3n2)C1 (stereo not given)
CC50 [2]: 47.8 µM (active)
IC50 [3]: 47.6 µM (active)

O=Cc1ccc(-c2ccc([N+](=O)[O-])cc2Cl)o1
IC50 [1]: > 50 µM (not active)

Cc1ccc(S(=O)(=O)NNC(=O)C(=O)NNc2ccccn2)cc1
IC50 [4]: > 20 µM (inactive)
AC50 [5]: 0.213 µM (active)

COC(=O)[C@@]1(C)[C@H]2C(=O)N(Cc3ccccc3)C(=O)[C@H]2[C@H]2CN=C(SCc3ccccc3)N21
AC50 [6]: 4.03 µM (active)
AC50 [7]: 0.75 µM (active)
AC50 [8]: 1.02 µM (active)
AC50 [9]: 0.74 µM (active)

Cc1ncccc1C(=O)N1CCCC(C(=O)c2ccc3c4c(cccc24)CC3)C1 (stereo not given)
AC50 [6]: 8.47 µM (active)
AC50 [7]: 7.15 µM (active)
AC50 [8]: 20.4 µM (active)
AC50 [9]: 8.12 µM (active)

CCc1ccc2nc(N(CCCN(C)C)C(=O)c3ccc4c(c3)OCCO4)sc2c1
EC50 [10]: 0.214 µM (active)
EC50 [11]: 8.8 µM (active)
CC50 [12]: > 25 µM (active)

COc1ccccc1NCC(=O)Nc1cc(S(=O)(=O)N2CCOCC2)ccc1N1CCOCC1
IC50 [3]: 5.88 µM (active)

Cc1cccc(N(C(=O)c2snc(C(N)=O)c2N)C(C(=O)NCC2CCCO2)c2cccs2)c1 (stereo not given)
IC50 [4]: > 20 µM (inactive)

Cc1c(NC(=S)/C=C2\N(C)c3ccccc3C2(C)C)c(=O)n(-c2ccccc2)n1C
AC50 [13]: inconclusive

CCc1ccc2nc(O)c(C(c3nnnn3Cc3ccc(OC)cc3)N3CCOCC3)cc2c1 (stereo not given)
AC50 [6]: 43.7 µM (active)
AC50 [7]: 4.74 µM (active)
AC50 [8]: 7.97 µM (active)
AC50 [9]: 6.44 µM (active)

NC(=O)c1nsc(C(=O)N(c2ccc(Cl)cc2)C(C(=O)NCC2CCCO2)c2cccs2)c1N (stereo not given)
IC50 [4]: > 20 µM (inactive)

COc1ccc2c(c1)C(=NNC(=O)c1ccccn1)c1cc(OC)ccc1-2
CC50 [2]: 38.6 µM (active)
IC50 [3]: 24.6 µM (active)

O=C(Nc1cccc(Cl)c1)Nc1cccc(C(=O)O)c1
EC50 [14]: > 350 µM (not active)
EC50 [15]: 7.49 µM (active)
AC50 [16]: 10.5 µM (active)

CCOC(=O)c1c(CSc2nc(C)cc(C)c2C#N)n(C)c2cc(Br)c(OC(C)=O)cc12
AC50 [17]: 4.21 µM (active)
AC50 [16]: 31.6 µM (active)

CN(C)S(=O)(=O)c1cccc(NC(=O)CSc2nc3c(cc2C#N)C(=O)CC(C)(C)C3)c1
AC50 [18]: 9.02 µM (active)

CCOC(=O)C1=C(CNC(C)(C)CC(C)(C)C)NC(=O)NC1c1cccc([N+](=O)[O-])c1 (stereo not given)
IC50 [1]: > 50 µM (not active)

O=C(/C=C/c1ccc(Br)cc1)NC(=S)NNC(=O)c1ccco1
EC50 [19]: 0.343 µM (active)
EC50 [20]: 0.887 µM (active)
CC50 [12]: > 25 µM (active)

O=C(NCc1cccnc1)C1CCC(CNS(=O)(=O)c2ccc(Cl)cc2)CC1 (stereo not given)
IC50 [1]: 2.58 µM (not active)

COc1ccc(N(C(=O)c2snc(C(N)=O)c2N)C(C(=O)NC2CCCC2)c2cccs2)cc1OC (stereo not given)
IC50 [4]: > 20 µM (inactive)

Cc1c(CCOC(=O)CC23CC4CC(CC(C4)C2)C3)sc[n+]1CC(=O)c1ccccc1
IC50 [4]: > 20 µM (inactive)

COc1ccccc1N1CCN(c2nc3c(C)cccn3c(=O)c2C=O)CC1
AC50 [21]: 12.6 µM (inconclusive)
AC50 [13]: inconclusive
AC50 [22]: 1.12 µM (inconclusive)

Cc1cccc(C2NC(=O)c3c(sc(C)c3C)N2)c1O (stereo not given)
AC50 [13]: inconclusive

C=C(CN(C)C)C(=O)c1ccc(C)cc1C
AC50 [23]: 5.15 µM (active)
AC50 [24]: 18.5 µM (active)
AC50 [25]: 0.77 µM (active)

COc1ccccc1-c1sc2cc3c(cc2c1-c1ccc(OCCN2CCCCC2)cc1)OCO3
IC50 [4]: > 20 µM (inactive)

CC(C)=CCC/C(C)=C/CNC(=O)C[C@H]1C[C@H](C(=O)N(C(C)C)C(C)C)[C@@]2(C)c3[nH]c4cc(CCC(=O)N(C)C)ccc4c3CCN2C1=O
AC50 [23]: 11.9 µM (active)
AC50 [25]: 2.05 µM (active)

CCOc1ccc(CCN2C(=S)N([C@@H](CC(C)C)CN3CCCC3CN3C(=S)NC[C@@H]3Cc3ccc(O)cc3)C[C@@H]2Cc2ccc(O)cc2)cc1 (stereo not given in full)
AC50 [23]: 6.52 µM (active)
AC50 [24]: 53.9 µM (active)
AC50 [25]: 11.5 µM (active)

O=C(NN=Cc1ccc(N(CCCl)CCCl)cc1)c1cccnc1
AC50 [16]: 1.08 µM (active)

Cc1ccc(Nc2nc(NCC3CC3)nc3ccsc23)c(C)c1
AC50 [23]: 19.4 µM (active)
AC50 [24]: > 70 µM (inactive)
AC50 [25]: 5.82 µM (active)

O=C(O)c1ccc(N/N=C/c2cc3cc4c(cc3nc2Cl)OCCO4)cc1
AC50 [16]: 1.69 µM (active)

C[C@@H]1CN([C@H](C)CO)C(=O)c2cccc(NS(=O)(=O)c3cccs3)c2O[C@@H]1CN(C)Cc1ccc(Cl)c(Cl)c1
AC50 [6]: 2.53 µM (active)
AC50 [7]: 0.444 µM (active)
AC50 [9]: 0.952 µM (active)

CC1CN(/N=C/c2ccc([N+](=O)[O-])o2)C(=N)O1 (stereo not given)
AC50 [18]: 24.1 µM (active)

COc1ccc2cc(C(N)=O)/c(=N\NC(=O)c3ccccc3)oc2c1
EC50 [26]: 9.51 µM (inconclusive)
EC50 [27]: 8.54 µM (active)
EC50 [28]: 7.7 µM (active)
AC50 [16]: 2.83 µM (active)

From ChEMBL document CHEMBL1201862, “PubChem BioAssay data set” (2004)
